Assay results as given in patent US20250188043A1 (ReproNovo SA, priority 2023, published 2025).
In brackets after ≈: the same amount, converted by molar mass.

Experiments:
P-glycoprotein = P-glycoprotein (Homo sapiens, UniProt P08183); assay: P-glycoprotein inhibition; assay type: in vitro ADME; settings: at concentrations above 200 μM
CYP1A2 = biological target: T1, CYP1A2 (Homo sapiens, UniProt P05177); assay: CYP inhibition, pooled human liver microsomes, probe substrates; assay type: in vitro ADME; settings: up to 100 μM
T1 construct: assessed by pooled human liver microsomes using enzyme selective probe substrates; from tissue; host or cells: pooled human liver microsomes
T1 sequence (P05177 1-516): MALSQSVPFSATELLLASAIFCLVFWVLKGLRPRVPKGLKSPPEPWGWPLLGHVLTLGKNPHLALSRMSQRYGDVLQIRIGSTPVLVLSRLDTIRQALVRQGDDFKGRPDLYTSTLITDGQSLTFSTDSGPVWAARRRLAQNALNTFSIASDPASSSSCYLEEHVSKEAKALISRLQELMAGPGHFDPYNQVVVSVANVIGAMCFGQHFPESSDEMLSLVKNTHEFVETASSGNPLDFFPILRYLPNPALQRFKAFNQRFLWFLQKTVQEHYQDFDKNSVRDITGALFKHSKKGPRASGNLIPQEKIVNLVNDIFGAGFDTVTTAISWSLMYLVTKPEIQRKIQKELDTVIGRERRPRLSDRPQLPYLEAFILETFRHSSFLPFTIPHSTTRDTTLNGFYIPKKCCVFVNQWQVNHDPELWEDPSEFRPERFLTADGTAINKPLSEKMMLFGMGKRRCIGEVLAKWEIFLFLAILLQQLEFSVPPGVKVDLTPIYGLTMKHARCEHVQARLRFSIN

CYP2C8 = biological target: T2, CYP2C8 (Homo sapiens, UniProt P10632); assay: as above; assay type: in vitro ADME; settings: up to 100 μM
T2 construct: assessed by pooled human liver microsomes using enzyme selective probe substrates; from tissue; host or cells: pooled human liver microsomes
T2 sequence (P10632 1-490): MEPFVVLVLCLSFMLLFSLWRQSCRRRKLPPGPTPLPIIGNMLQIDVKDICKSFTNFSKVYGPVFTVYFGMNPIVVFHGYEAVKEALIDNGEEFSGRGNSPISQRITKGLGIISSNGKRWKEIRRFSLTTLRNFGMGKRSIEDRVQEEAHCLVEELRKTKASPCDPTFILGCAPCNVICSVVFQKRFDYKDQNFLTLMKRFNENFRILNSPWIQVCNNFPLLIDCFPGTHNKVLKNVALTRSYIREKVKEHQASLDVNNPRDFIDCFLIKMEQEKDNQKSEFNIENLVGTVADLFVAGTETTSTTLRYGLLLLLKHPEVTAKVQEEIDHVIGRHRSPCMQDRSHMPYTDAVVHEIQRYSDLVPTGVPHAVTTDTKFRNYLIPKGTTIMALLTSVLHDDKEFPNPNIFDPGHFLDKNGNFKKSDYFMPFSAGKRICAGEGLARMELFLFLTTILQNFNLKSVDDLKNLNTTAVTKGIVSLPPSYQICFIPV

CYP2C9 = biological target: T3, CYP2C9 (Homo sapiens, UniProt P11712); assay: as above; assay type: in vitro ADME; settings: up to 100 μM
T3 construct: assessed by pooled human liver microsomes using enzyme selective probe substrates; from tissue; host or cells: pooled human liver microsomes
T3 sequence (P11712 whole entry): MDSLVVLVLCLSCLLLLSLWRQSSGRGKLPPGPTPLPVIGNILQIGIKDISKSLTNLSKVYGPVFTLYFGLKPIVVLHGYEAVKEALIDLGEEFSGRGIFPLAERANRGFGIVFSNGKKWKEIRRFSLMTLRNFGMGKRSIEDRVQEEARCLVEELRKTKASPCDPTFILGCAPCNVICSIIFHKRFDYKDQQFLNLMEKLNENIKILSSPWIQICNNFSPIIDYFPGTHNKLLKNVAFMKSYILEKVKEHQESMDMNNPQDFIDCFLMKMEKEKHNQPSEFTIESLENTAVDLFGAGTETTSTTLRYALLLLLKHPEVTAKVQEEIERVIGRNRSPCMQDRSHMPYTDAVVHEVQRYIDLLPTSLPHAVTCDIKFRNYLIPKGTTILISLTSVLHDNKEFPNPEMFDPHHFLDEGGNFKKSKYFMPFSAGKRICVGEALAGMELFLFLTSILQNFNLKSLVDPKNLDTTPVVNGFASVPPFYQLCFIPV

CYP2C19 = biological target: T4, CYP2C19 (Homo sapiens, UniProt P33261); assay: as above; assay type: in vitro ADME; settings: up to 100 μM
T4 construct: assessed by pooled human liver microsomes using enzyme selective probe substrates; from tissue; host or cells: pooled human liver microsomes
T4 sequence (P33261 whole entry): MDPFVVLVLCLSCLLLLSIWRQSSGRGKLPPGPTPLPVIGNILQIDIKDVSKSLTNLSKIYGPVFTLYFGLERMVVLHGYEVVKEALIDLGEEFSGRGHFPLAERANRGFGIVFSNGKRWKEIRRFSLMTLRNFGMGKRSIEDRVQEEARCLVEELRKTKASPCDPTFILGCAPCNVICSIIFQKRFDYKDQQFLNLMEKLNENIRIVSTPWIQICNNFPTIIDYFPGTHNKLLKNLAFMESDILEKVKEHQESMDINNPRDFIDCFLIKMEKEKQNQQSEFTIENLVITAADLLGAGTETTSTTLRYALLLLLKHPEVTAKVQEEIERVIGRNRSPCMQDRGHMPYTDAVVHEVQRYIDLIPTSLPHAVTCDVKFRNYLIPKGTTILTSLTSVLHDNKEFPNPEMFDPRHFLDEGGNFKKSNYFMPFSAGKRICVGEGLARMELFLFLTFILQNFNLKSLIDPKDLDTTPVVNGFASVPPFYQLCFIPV

CYP2A6 = biological target: T5, CYP2A6 (Homo sapiens, UniProt P11509); assay: as above; assay type: in vitro ADME
T5 construct: assessed by pooled human liver microsomes using enzyme selective probe substrates; from tissue; host or cells: pooled human liver microsomes
T5 sequence (P11509 1-494): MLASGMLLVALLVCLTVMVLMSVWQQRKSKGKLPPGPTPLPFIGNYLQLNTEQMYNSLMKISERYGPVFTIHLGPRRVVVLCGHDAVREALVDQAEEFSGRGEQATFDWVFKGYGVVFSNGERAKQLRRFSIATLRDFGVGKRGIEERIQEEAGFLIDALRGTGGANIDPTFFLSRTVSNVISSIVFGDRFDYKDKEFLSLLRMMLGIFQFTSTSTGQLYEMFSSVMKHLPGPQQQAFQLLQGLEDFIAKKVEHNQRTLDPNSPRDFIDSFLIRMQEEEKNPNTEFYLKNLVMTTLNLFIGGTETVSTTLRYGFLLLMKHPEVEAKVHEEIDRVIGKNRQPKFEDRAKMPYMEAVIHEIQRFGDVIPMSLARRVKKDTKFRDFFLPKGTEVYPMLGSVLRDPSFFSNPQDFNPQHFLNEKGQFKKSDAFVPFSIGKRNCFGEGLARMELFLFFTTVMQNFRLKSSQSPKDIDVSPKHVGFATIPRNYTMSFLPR

[1] = Metabolic stability in human liver microsomes; assay type: in vitro ADME
Kinetic solubility = assay type: physicochemical; settings: aqueous buffer, kinetic from dmso stock; room temperature, aqueous solutions between pH 1.0 and pH 6.8

Chain of P-glycoprotein (P08183 whole entry): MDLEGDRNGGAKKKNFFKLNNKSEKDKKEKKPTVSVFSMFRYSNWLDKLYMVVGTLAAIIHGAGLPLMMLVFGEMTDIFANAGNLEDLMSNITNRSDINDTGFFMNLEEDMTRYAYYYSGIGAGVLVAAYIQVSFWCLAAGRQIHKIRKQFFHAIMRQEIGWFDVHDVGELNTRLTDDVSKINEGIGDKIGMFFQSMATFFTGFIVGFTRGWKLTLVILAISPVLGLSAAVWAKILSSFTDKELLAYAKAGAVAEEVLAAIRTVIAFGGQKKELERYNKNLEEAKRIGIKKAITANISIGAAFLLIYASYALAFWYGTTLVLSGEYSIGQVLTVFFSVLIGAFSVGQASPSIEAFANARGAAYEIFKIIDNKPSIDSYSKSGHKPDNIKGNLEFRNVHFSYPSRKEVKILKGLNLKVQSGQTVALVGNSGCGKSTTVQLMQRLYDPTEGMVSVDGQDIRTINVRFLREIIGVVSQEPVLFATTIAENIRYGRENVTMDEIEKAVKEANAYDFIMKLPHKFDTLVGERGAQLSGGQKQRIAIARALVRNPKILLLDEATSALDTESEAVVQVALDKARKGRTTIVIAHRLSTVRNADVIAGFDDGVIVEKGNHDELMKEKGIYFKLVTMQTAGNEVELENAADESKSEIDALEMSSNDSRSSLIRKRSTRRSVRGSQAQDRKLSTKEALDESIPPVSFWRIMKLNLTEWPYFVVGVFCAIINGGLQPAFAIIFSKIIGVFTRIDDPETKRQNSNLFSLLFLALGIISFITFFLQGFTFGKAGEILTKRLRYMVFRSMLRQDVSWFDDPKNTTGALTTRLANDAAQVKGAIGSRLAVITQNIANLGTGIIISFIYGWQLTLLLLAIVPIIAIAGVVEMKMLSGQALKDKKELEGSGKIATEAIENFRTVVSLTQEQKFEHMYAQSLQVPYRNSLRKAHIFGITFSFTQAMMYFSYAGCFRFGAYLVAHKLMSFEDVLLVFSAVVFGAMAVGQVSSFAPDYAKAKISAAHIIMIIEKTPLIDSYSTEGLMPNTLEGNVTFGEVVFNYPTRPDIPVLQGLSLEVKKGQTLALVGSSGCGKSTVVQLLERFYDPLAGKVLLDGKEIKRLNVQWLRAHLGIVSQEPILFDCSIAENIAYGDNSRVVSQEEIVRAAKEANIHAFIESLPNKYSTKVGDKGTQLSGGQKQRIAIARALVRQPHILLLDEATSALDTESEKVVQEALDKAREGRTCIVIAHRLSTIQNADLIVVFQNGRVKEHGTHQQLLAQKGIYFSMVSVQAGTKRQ

| inhibition of P-glycoprotein (P-glycoprotein) | IC50 (CYP1A2) [µM] | IC50 (CYP2C8) [µM] | IC50 (CYP2C9) [µM] | IC50 (CYP2C19) [µM] | Ki (CYP2A6) [nM] | half-life [1] [min] | CLint scaled ([1]; read-out: intrinsic clearance (CLint)) [mL/min/kg] | solubility kinetic (Kinetic solubility) [µg/mL] | Compound |
| --- | --- | --- | --- | --- | --- | --- | --- | --- | --- |
| not determined to be an inhibitor | > 50 | > 50 | > 50 | > 50 | 2560 | 201 | 6.9 | – | N#Cc1ccc(C(F)(c2ccc(C#N)cc2)n2cncn2)cc1 [leflutrozole, 4-[(4-cyanophenyl)-fluoro-(1,2,4-triazol-1-yl)methyl]benzonitrile] |
| – | – | – | – | – | – | – | – | ~0.0607 (≈ 0.2 µM) | N#Cc1ccc(C(F)(c2ccc(C#N)cc2)n2cncn2)cc1 [Form A leflutrozole, 4-[(4-cyanophenyl)-fluoro-(1,2,4-triazol-1-yl)methyl]benzonitrile] |
